ChEMBL document CHEMBL1141733, “Cardiovascular effects of aspidofractinine-type alkaloids from Kopsia” (1998)
Activity calls are given as the source filed them. No cut-off for these calls is given here.

Assays:
Rattus norvegicus [1] = assay: Antihypertensive activity in anesthetized SHR rat assessed as decrease in heart rate at 5 mg/kg, iv; assay type: functional, organism-based; set-up: dose 5 mg/kg
Rattus norvegicus [2] = assay: Antihypertensive activity in anesthetized SHR rat assessed as decrease in basal mean arterial blood pressure at 10 mg/kg, iv pretreated with hexamethonium for 10 mins; assay type: functional, organism-based; set-up: dose 10 mg/kg; conditions: Artery
Rattus norvegicus [3] = assay: Increase in basal mean arterial blood pressure anesthetized SHR rat at 1 mg/kg, iv; assay type: functional, organism-based; set-up: dose 1 mg/kg
Rattus norvegicus [4] = assay: Increase in basal mean arterial blood pressure anesthetized SHR rat at 10 mg/kg, iv; assay type: functional, organism-based; set-up: dose 10 mg/kg
Rattus norvegicus [5] = assay: Increase in basal mean arterial blood pressure anesthetized SHR rat at 5 mg/kg, iv; assay type: functional, organism-based; set-up: dose 5 mg/kg
Rattus norvegicus [6] = assay: Antihypertensive activity in anesthetized SHR rat assessed as decrease in heart rate at 0.5 mg/kg, iv; assay type: functional, organism-based; set-up: dose 0.5 mg/kg
Rattus norvegicus [7] = assay: Antihypertensive activity in iv dosed anesthetized SHR rat assessed as decrease in basal mean arterial blood pressure; assay type: functional, organism-based; conditions: Artery
Rattus norvegicus [8] = assay: Increase in basal mean arterial blood pressure anesthetized SHR rat at 0.2 mg/kg, iv; assay type: functional, organism-based; set-up: dose 0.2 mg/kg
Rattus norvegicus [9] = assay: Antihypertensive activity in iv dosed anesthetized SHR rat assessed as concomitant fall in heart rate; assay type: functional, organism-based
Rattus norvegicus [10] = assay: Increase in basal mean arterial blood pressure anesthetized SHR rat at 2 mg/kg, iv; assay type: functional, organism-based; set-up: dose 2 mg/kg
Rattus norvegicus [11] = assay: Antihypertensive activity in anesthetized SHR rat assessed as decrease in heart rate at 2 mg/kg, iv; assay type: functional, organism-based; set-up: dose 2 mg/kg
Rattus norvegicus [12] = assay: (§1) Antihypertensive activity in anesthetized SHR rat assessed as decrease in heart rate at 10 mg/kg, iv; assay type: functional, organism-based; set-up: dose 10 mg/kg
Rattus norvegicus [13] = assay: Increase in basal mean arterial blood pressure anesthetized SHR rat at 0.5 mg/kg, iv; assay type: functional, organism-based; set-up: dose 0.5 mg/kg
Rattus norvegicus [14] = assay: Antihypertensive activity in anesthetized SHR rat assessed as decrease in heart rate at 10 mg/kg, iv pretreated with hexamethonium for 10 mins; assay type: functional, organism-based; set-up: dose 10 mg/kg
Rattus norvegicus [15] = assay: Antihypertensive activity in anesthetized SHR rat assessed as decrease in heart rate at 0.2 mg/kg, iv; assay type: functional, organism-based; set-up: dose 0.2 mg/kg
Rattus norvegicus [16] = assay: Antihypertensive activity in anesthetized SHR rat assessed as decrease in heart rate at 1 mg/kg, iv; assay type: functional, organism-based; set-up: dose 1 mg/kg
Rattus norvegicus [17] = assay: Antihypertensive activity in anesthetized SHR rat assessed as decrease in basal mean arterial blood pressure at 20 mg/kg, iv after 10 mins; assay type: functional, Artery
Rattus norvegicus [18] = assay: Antihypertensive activity in anesthetized SHR rat assessed as decrease in basal mean arterial blood pressure at 20 mg/kg, iv after 1 to 1.5 mins; assay type: functional, Artery
Rattus norvegicus [19] = assay: Antihypertensive activity in anesthetized SHR rat assessed as decrease in heart rate at 20 mg/kg, iv after 10 mins; assay type: functional
Rattus norvegicus [20] = assay: Antihypertensive activity in anesthetized SHR rat assessed as decrease in heart rate at 20 mg/kg, iv after 1 to 1.5 mins; assay type: functional
Rattus norvegicus [21] = assay: as §1; assay type: functional
Rattus norvegicus [22] = assay: Antihypertensive activity in anesthetized SHR rat assessed as decrease in basal mean arterial blood pressure at 10 mg/kg, iv; assay type: functional, Artery
Rattus norvegicus [23] = assay: Antihypertensive activity in anesthetized SHR rat assessed as decrease in basal mean arterial blood pressure at 10 mg/kg, iv pretreated with phentolamine for 10 mins; assay type: functional, Artery
Rattus norvegicus [24] = assay: Antihypertensive activity in anesthetized SHR rat assessed as decrease in heart rate at 10 mg/kg, iv pretreated with atropine for 10 mins; assay type: functional
Rattus norvegicus [25] = assay: Antihypertensive activity in iv dosed anesthetized WKY rat assessed as hypotensive activity; assay type: functional, organism-based
Rattus norvegicus [26] = assay: Antihypertensive activity in anesthetized SHR rat assessed as decrease in heart rate at 10 mg/kg, iv pretreated with phentolamine for 10 mins; assay type: functional
Rattus norvegicus [27] = assay: Antihypertensive activity in anesthetized SHR rat assessed as decrease in basal mean arterial blood pressure at 10 mg/kg, iv pretreated with atropine for 10 mins; assay type: functional, Artery
Rattus norvegicus [28] = assay: Antihypertensive activity in anesthetized SHR rat assessed as hypotensive response lasting time at 10 mg/kg, iv; assay type: functional
Rattus norvegicus [29] = assay: Antihypertensive activity in anesthetized SHR rat assessed as basal mean arterial blood pressure at 2 mg/kg, iv after 10 mins; assay type: functional, Artery
Rattus norvegicus [30] = assay: Antihypertensive activity in anesthetized SHR rat assessed as decrease in heart rate at 2 mg/kg, iv after 24 to 26 seconds; assay type: functional
Rattus norvegicus [31] = assay: Antihypertensive activity in anesthetized SHR rat assessed as decrease in basal mean arterial blood pressure at 2 mg/kg, iv after 24 to 26 seconds; assay type: functional, Artery
Rattus norvegicus [32] = assay: Antihypertensive activity in anesthetized SHR rat assessed as heart rate at 2 mg/kg, iv after 10 mins; assay type: functional
Rattus norvegicus [33] = assay: Antihypertensive activity in anesthetized SHR rat assessed as increase in heart rate at 3 mg/kg, iv; assay type: functional
Rattus norvegicus [34] = assay: Antihypertensive activity in anesthetized SHR rat assessed as decrease in basal mean arterial blood pressure at 3 mg/kg, iv; assay type: functional, Artery
Rattus norvegicus [35] = assay: Antihypertensive activity in anesthetized SHR rat assessed as decrease in basal mean arterial blood pressure at 3 mg/kg, iv after 10 mins; assay type: functional, Artery
Rattus norvegicus [36] = assay: Antihypertensive activity in anesthetized SHR rat assessed as decrease in heart rate at 3 mg/kg, iv after 10 mins; assay type: functional

COC(=O)N1c2c(OC)cccc2[C@@]23CCN4[C@H]5CC[C@]6(CC[C@]12[C@](O)(C(=O)OC)[C@@H]6O5)[C@H]43
Activity (Rattus norvegicus [1]): Active
Activity (Rattus norvegicus [2]): Active
Activity (Rattus norvegicus [3]): Active
Activity (Rattus norvegicus [4]): Active
Activity (Rattus norvegicus [5]): Active
Activity (Rattus norvegicus [6]): Active
Activity (Rattus norvegicus [7]): Dose-dependent effect
Activity (Rattus norvegicus [8]): Active
Activity (Rattus norvegicus [9]): Dose-dependent effect
Activity (Rattus norvegicus [10]): Active
Activity (Rattus norvegicus [11]): Active
Activity (Rattus norvegicus [12]): Active
Activity (Rattus norvegicus [13]): Active
Activity (Rattus norvegicus [14]): Active
Activity (Rattus norvegicus [15]): Active

COC(=O)N1c2c(OC)cccc2[C@@]23CCN4[C@@H]5C[C@@H](OC)[C@]6(CC[C@]12[C@](O)(C(=O)OC)[C@H]6O5)[C@H]43
Activity (Rattus norvegicus [1]): Active
Activity (Rattus norvegicus [16]): Active
Activity (Rattus norvegicus [3]): Active
Activity (Rattus norvegicus [4]): Active
Activity (Rattus norvegicus [5]): Active
Activity (Rattus norvegicus [6]): Active
Activity (Rattus norvegicus [7]): Dose-dependent effect
Activity (Rattus norvegicus [8]): Active
Activity (Rattus norvegicus [9]): Dose-dependent effect
Activity (Rattus norvegicus [10]): Active
Activity (Rattus norvegicus [11]): Active
Activity (Rattus norvegicus [12]): Active
Activity (Rattus norvegicus [13]): Active
Activity (Rattus norvegicus [15]): Active

C[N+](C)(C)CCCCCC[N+](C)(C)C.[Cl-].[Cl-] [HEXAMETHONIUM CHLORIDE]
Activity (Rattus norvegicus [17]): 104.8 mmHg
Activity (Rattus norvegicus [18]): 92 mmHg
Activity (Rattus norvegicus [19]): 296.8 bpm
Activity (Rattus norvegicus [20]): 313.6 bpm

COC(=O)N1c2c(OC)cccc2[C@@]23CCN4CC=C[C@]5(CC[C@]12[C@](O)(C(=O)OC)[C@@H]5O)[C@H]43 [KOPSINGINE]
Activity (Rattus norvegicus [2]): inactive
Activity (Rattus norvegicus [21]): -101 bpm
Activity (Rattus norvegicus [22]): -68.5 mmHg
Activity (Rattus norvegicus [7]): Dose-dependent effect
Activity (Rattus norvegicus [23]): 30.7 mmHg
Activity (Rattus norvegicus [9]): Dose-dependent effect
Activity (Rattus norvegicus [24]): -71.5 bpm
Activity (Rattus norvegicus [25]): Dose-dependent effect
Activity (Rattus norvegicus [26]): 66.7 bpm
Activity (Rattus norvegicus [27]): -51 mmHg
Activity (Rattus norvegicus [28]): 3.9 min
Activity (Rattus norvegicus [14]): inactive

COC(=O)N1c2c(OC)cccc2[C@@]23CCN4CCC[C@]5(CC[C@]12[C@](O)(C(=O)OC)[C@@H]5O)[C@H]43 [DIHYDROKOPSINGINE]
Activity (Rattus norvegicus [2]): inactive
Activity (Rattus norvegicus [21]): -49.2 bpm
Activity (Rattus norvegicus [22]): -44.7 mmHg
Activity (Rattus norvegicus [7]): Dose-dependent effect
Activity (Rattus norvegicus [23]): 18.2 mmHg
Activity (Rattus norvegicus [9]): Dose-dependent effect
Activity (Rattus norvegicus [26]): -52.5 bpm
Activity (Rattus norvegicus [14]): inactive

COC(=O)N1c2ccccc2[C@]23CCN4CC=C[C@@]5(CC[C@@]12[C@@](O)(C(=O)OC)[C@H]5O)[C@@H]43 [KOPSAPORINE]
Activity (Rattus norvegicus [7]): Dose-dependent effect
Activity (Rattus norvegicus [28]): 3.6 min

CN1[C@@H]2CC[C@H]1C[C@@H](OC(=O)C(CO)c1ccccc1)C2 (stereo partly drawn) [ATROPINE]
Activity (Rattus norvegicus [29]): 160.9 mmHg
Activity (Rattus norvegicus [30]): 371 bpm
Activity (Rattus norvegicus [31]): 155.6 mmHg
Activity (Rattus norvegicus [32]): 368 bpm

Cc1ccc(N(CC2=NCCN2)c2cccc(O)c2)cc1 [PHENTOLAMINE]
Activity (Rattus norvegicus [33]): 372.5 bpm
Activity (Rattus norvegicus [34]): 106.7 mmHg
Activity (Rattus norvegicus [35]): 108.4 mmHg
Activity (Rattus norvegicus [36]): 356.7 bpm
